Laboratory results from patent publication US12319709B2, “Diaryl trehalose compounds and uses thereof” (THE UNIVERSITY OF MONTANA, priority 2018, dated 2025).

What was measured:
RAW264.7 cells = assay: Cytokine (TNFα) response of mouse macrophage cell line; Table 2 'Murine'; assay type: cell-based; parameters: Maximum cytokine response Murine: unit not given here; details: NR = no response
Method: Compounds were also tested in a mouse macrophage cell line (FIG. 4B). RAW264.7 cells were subjected to increasing concentrations of the compounds and assessed for production of the cytokine TNFα.

[1] = system: peripheral blood mononuclear cells (PBMCs); assay: IL-6 induction in fresh human PBMCs; assay type: cell-based; details: for IL-6 production / activity in fresh PBMCs from multiple donors (in words): compounds in DMSO serially diluted in media, supernatants 18 h after treatment; for Maximum cytokine response h-IL-6 / Minimal Effective Concentration h-IL-6: human IL-6, NR = no response
Method: (§1) Tumor necrosis factor alpha (TNFα) and IL-6 production in peripheral blood mononuclear cells (PBMCs) was measured after exposure to various concentrations of the DAT compounds synthesized as shown above. Initial studies focused on two different methods of delivery of the DAT compounds to PBMC cultures. In the first delivery method, the indicated derivative compound was dissolved in isopropanol, serially diluted, and then dried to the bottom of a tissue culture plate. In the second delivery method, the indicated derivative compound was dissolved in DMSO and serially diluted into tissue culture media. In each method, PBMCs were added to the compounds and incubated at 37° C. TNFα (FIG. 1A) and IL-6 (FIG. 1B) were measured after 18-24 hours after treatment by ELISA assay.
The isolated PBMCs were exposed to increasing concentrations of the indicated compounds resuspended in DMSO and serially diluted in media. IL-6 levels were determined from supernatants eighteen hours after treatment (FIG. 3).

[2] = system: peripheral blood mononuclear cells (PBMCs); assay: Cytokine analysis of supernatants of stimulated, freshly prepared PBMCs; assay type: cell-based, human; details: compounds solubilized in DMSO
Method: as §1
Supernatants from the freshly prepared PBMCs stimulated with DAT compounds solubilized in DMSO (Example 5A) were analyzed for the cytokines that help drive Th1 cell or Th17 cell adaptive immune responses; IFNγ, IL-12 p70, IL-6, IL-1β, and IL-23. Minimal amounts of IL-12p70 were detected and IFNγ was undetectable. Therefore, both are not reported.

| Compound | Maximum cytokine response Murine (RAW264.7 cells; listed as 1015) | Minimal Effective Concentration Murine (RAW264.7 cells; listed as 1015) [µM] | IL-6 production / activity in fresh PBMCs from multiple donors (in words) [1] | Maximum cytokine response h-IL-6 [1] [OD] | Minimal Effective Concentration h-IL-6 [1] [µM] | TNFα response in PBMCs (in words) [2] | Maximum cytokine response Murine (RAW264.7 cells) | Minimal Effective Concentration Murine (RAW264.7 cells) [µM] |
| --- | --- | --- | --- | --- | --- | --- | --- | --- |
| COc1cc(OC)cc(C(=O)OC[C@H]2O[C@H](O[C@H]3O[C@H](COC(=O)c4cc(OC)cc(OC)c4)[C@@H](O)[C@H](O)[C@H]3O)[C@H](O)[C@@H](O)[C@@H]2O)c1 [UM1015, 6,6′-bis-(3,5-dimethoxybenzoate)-α,α-trehalose] | 3.5 | 12.3 | potent, robust activity in only 3 of 5 donors | 3.6 | 111 | higher responding | – | – |
| COc1ccc(/C=C/C(=O)OC[C@H]2O[C@H](O[C@H]3O[C@H](COC(=O)/C=C/c4ccc(OC)c(OC)c4)[C@@H](O)[C@H](O)[C@H]3O)[C@H](O)[C@@H](O)[C@@H]2O)cc1OC [UM1019] | – | – | – | 2 | 333 | higher responding | 2.3 | 111 |
| COc1cc(/C=C/C(=O)OC[C@H]2O[C@H](O[C@H]3O[C@H](COC(=O)/C=C/c4cc(OC)c(OC)c(OC)c4)[C@@H](O)[C@H](O)[C@H]3O)[C@H](O)[C@@H](O)[C@@H]2O)cc(OC)c1OC [UM1020] | – | – | – | 1.5 | 333 | higher responding | 3.2 | 33.3 |
| O=C(/C=C/c1ccc(O)c(O)c1)OC[C@H]1O[C@H](O[C@H]2O[C@H](COC(=O)/C=C/c3ccc(O)c(O)c3)[C@@H](O)[C@H](O)[C@H]2O)[C@H](O)[C@@H](O)[C@@H]1O [UM1021] | – | – | induced some cytokine production | 2 | 333 | higher responding | 3 | 333 |
| COc1cc(C)c(C(=O)OC[C@H]2O[C@H](O[C@H]3O[C@H](COC(=O)c4c(C)cc(OC)cc4OC)[C@@H](O)[C@H](O)[C@H]3O)[C@H](O)[C@@H](O)[C@@H]2O)c(OC)c1 [UM1022] | – | – | reproducibly induced potent, robust IL-6 production | 3 | 333 | higher responding | 3.3 | 37 |
| CCCCCCCCOc1cc(OCCCCCCCC)cc(C(=O)OC[C@H]2O[C@H](O[C@H]3O[C@H](COC(=O)c4cc(OCCCCCCCC)cc(OCCCCCCCC)c4)[C@@H](O)[C@H](O)[C@H]3O)[C@H](O)[C@@H](O)[C@@H]2O)c1 [UM1093] | – | – | – | 3.4 | 1.2 | – | <.001 | 3.4 |
| CCCCCCCCCCOc1cc(OCCCCCCCCCC)cc(C(=O)OC[C@H]2O[C@H](O[C@H]3O[C@H](COC(=O)c4cc(OCCCCCCCCCC)cc(OCCCCCCCCCC)c4)[C@@H](O)[C@H](O)[C@H]3O)[C@H](O)[C@@H](O)[C@@H]2O)c1 [UM1094] | – | – | – | 3.4 | 1.2 | – | <.001 | 3.4 |
| CCCOc1cc(C(=O)OC[C@H]2O[C@H](O[C@H]3O[C@H](COC(=O)c4cc(OCCC)c(OCCC)c(OCCC)c4)[C@@H](O)[C@H](O)[C@H]3O)[C@H](O)[C@@H](O)[C@@H]2O)cc(OCCC)c1OCCC [UM1095] | – | – | – | 3.3 | 3.7 | – | 0.001 | 3.4 |
| CCCCOc1cc(C(=O)OC[C@H]2O[C@H](O[C@H]3O[C@H](COC(=O)c4cc(OCCCC)c(OCCCC)c(OCCCC)c4)[C@@H](O)[C@H](O)[C@H]3O)[C@H](O)[C@@H](O)[C@@H]2O)cc(OCCCC)c1OCCCC [UM1096] | – | – | – | 3.2 | 2.5 | – | 0.005 | 3 |
| CCCCCCOc1cc(C(=O)OC[C@H]2O[C@H](O[C@H]3O[C@H](COC(=O)c4cc(OCCCCCC)c(OCCCCCC)c(OCCCCCC)c4)[C@@H](O)[C@H](O)[C@H]3O)[C@H](O)[C@@H](O)[C@@H]2O)cc(OCCCCCC)c1OCCCCCC [UM1097] | – | – | – | 3.3 | 3.7 | – | 0.005 | 3.4 |
| CCCCCCCCOc1cc(C(=O)OC[C@H]2O[C@H](O[C@H]3O[C@H](COC(=O)c4cc(OCCCCCCCC)c(OCCCCCCCC)c(OCCCCCCCC)c4)[C@@H](O)[C@H](O)[C@H]3O)[C@H](O)[C@@H](O)[C@@H]2O)cc(OCCCCCCCC)c1OCCCCCCCC [UM1098] | – | – | – | 3.4 | 11 | – | 0.04 | 3.4 |
| CCCCCCCCCCOc1cc(C(=O)OC[C@H]2O[C@H](O[C@H]3O[C@H](COC(=O)c4cc(OCCCCCCCCCC)c(OCCCCCCCCCC)c(OCCCCCCCCCC)c4)[C@@H](O)[C@H](O)[C@H]3O)[C@H](O)[C@@H](O)[C@@H]2O)cc(OCCCCCCCCCC)c1OCCCCCCCCCC [UM1099] | – | – | – | 3.2 | 11 | – | 0.005 | 3.4 |
| CCOc1cc(C(=O)NC[C@H]2O[C@H](O[C@H]3O[C@H](CNC(=O)c4cc(OCC)c(OCC)c(OCC)c4)[C@@H](O)[C@H](O)[C@H]3O)[C@H](O)[C@@H](O)[C@@H]2O)cc(OCC)c1OCC [UM1110] | – | – | – | 1 | 100 | – | 11 | 2.5 |
| CCCCCOc1cc(OCCCCC)cc(C(=O)NC[C@H]2O[C@H](O[C@H]3O[C@H](CNC(=O)c4cc(OCCCCC)cc(OCCCCC)c4)[C@@H](O)[C@H](O)[C@H]3O)[C@H](O)[C@@H](O)[C@@H]2O)c1 [UM1111] | – | – | – | 2.5 | 33.3 | – | 0.13 | 3.3 |
| Cc1cc(C(C)(C)C)cc(C)c1C(=O)OC[C@H]1O[C@H](O[C@H]2O[C@H](COC(=O)c3c(C)cc(C(C)(C)C)cc3C)[C@@H](O)[C@H](O)[C@H]2O)[C@H](O)[C@@H](O)[C@@H]1O [UM1116] | – | – | – | 2.3 | 100 | – | 0.005 | 3 |
| CC(C)(C)CC(C)(C)c1ccc(O)c(C(=O)OC[C@H]2O[C@H](O[C@H]3O[C@H](COC(=O)c4cc(C(C)(C)CC(C)(C)C)ccc4O)[C@@H](O)[C@H](O)[C@H]3O)[C@H](O)[C@@H](O)[C@@H]2O)c1 [UM1117] | – | – | – | 9 | 33.3 | – | 11 | 3 |
| CCOc1cc(C(=O)OC[C@H]2O[C@H](O[C@H]3O[C@H](CO)[C@@H](O)[C@H](O)[C@H]3O)[C@H](O)[C@@H](O)[C@@H]2O)cc(OCC)c1OCC [UM1120] | – | – | – | 0.3 | 100 | – | 11 | 2.5 |
| CC(C)(C)c1cc(C(=O)NC[C@H]2O[C@H](O[C@H]3O[C@H](CNC(=O)c4cc(C(C)(C)C)cc(C(C)(C)C)c4)[C@@H](O)[C@H](O)[C@H]3O)[C@H](O)[C@@H](O)[C@@H]2O)cc(C(C)(C)C)c1 [UM1123] | – | – | – | 2.7 | 33.3 | – | 0.13 | 3.3 |
